Reference: US11548918B2, “Sodium channel protein Nav1.4-targeting polypeptide and use thereof” (priority 2021, dated 2023)
Where no end group is shown, it is not given here.

System: skin wrinkles
Experiment: Clinical trial of wrinkle reduction, wrinkle volume measured with PRIMOS CR
Format: in vivo, human
Details: lotion with 0.0003 wt % NaV-B, 0.1 g at corners of eyes, female volunteers
Experimental: The capacity of NaV-B in reducing skin wrinkles was evaluated by clinical trials, wherein a total of 30 female volunteers ranging from 35 to 55 years old were participating in the trials. In the trials, 0.1 g of lotion was evenly applied to the corners of the volunteers' eyes. The wrinkle volume of each volunteer was measured with a wrinkle analyzer PRIMOS CR at various moments: before application, 15 minutes after application, 1 hour after application, 2 hours after application, and 4 hours after application.
The lotion was prepared by adding NaV-B, glycerin, 1,3-butanediol, sodium hyaluronate, and methylparaben into deionized water according to the following proportions, and stirring until all the ingredients were dissolved.
Results: The reduced wrinkle volumes of each volunteer were obtained by subtracting the volume measured before application from the volumes measured 15 minutes after application, 1 hour after application, 2 hours after application, and 4 hours after application. The percentages of reduced wrinkle volume of each volunteer were obtained through dividing the reduced wrinkle volumes by the volume measured before application.

Substance: Synthetic Nav1.4-targeting polypeptide, amino acid sequence GHCCGDEYRKWCGKRVCRNKARCC (disulfide (positions not given here); not fully specified (bridges)) [NaV-B]
- percentage of reduced wrinkle volume (average of all volunteers) (15 minutes after application): more than 9%
- percentage of reduced wrinkle volume (average of all volunteers) (4 hours after application): more than 15%
